Experimental data from patent publication US20240132515A1, “TOXIN MOLECULE SUITABLE FOR ANTIBODY-DRUG CONJUGATE” (MINGHUI PHARMACEUTICAL (HANGZHOU) LIMITED, priority 2021, published 2024).

The molecules below were run on KPL-4 Cells (assay: Cell Proliferation Inhibition Test (CellTiter-Glo, 72 h)). Conditions: KPL4, 72 h incubation, CellTiter-Glo luminescence.
Type: cell-based
Method: Cell Proliferation Inhibition Test KPL-4 Cells in the logarithmic phase of growth were collected and re-suspended with fresh RPMI1640 complete cell culture medium, and adjusted to 2×10^4 cells/mL after cell counting. Cells were seeded into 96-well cell culture plates at 100 μL/well, and placed in a CO2 incubator (37° C., 5% CO2) overnight. In the next day, one of the cell culture plates were taken out, balanced to room temperature, and CellTiter-Glo reagent (Promega, USA), which was pre-balanced to room temperature and evenly mixed, was added into the plate at 100 μl. The plate was kept in dark for 30 min, and then luminescence value was read with a microplate reader (denoted as G0 value). The other cell culture plates were taken out and added with different concentrations of test compounds or DMSO (final concentration 0.5%) in corresponding wells. After incubated for 72 h in a CO2 incubator, the cell culture plates were balanced to room temperature and tested for cell viabilities using CellTiter-Glo reagent as described above (denoted as G3 value).
The cell proliferation rates were calculated using the following formula: Cell proliferation rate (%)=(mean of G3compound−mean of G0)/(mean of G3DMSO−mean of G0)×100.

For `CC[C@@]1(O)C(=O)OCc2c1cc1n(c2=O)Cc2c-1nc1cc(F)c(C)c3c1c2[C@@H](NC(=O)CO)CC3` [DXd, reference compound], which GI50 is on record?
Its GI50 is 72 nM.

`CC[C@@]1(O)C(=O)OCc2c1cc1n(c2=S)Cc2c-1nc1cc(F)c(C)c3c1c2[C@@H](NC(C)=O)CC3` [Example 3] was tested. Which GI50 did it give?
The GI50 was 2.59 nM.

How did the GI50 turn out when `CC[C@@]1(O)C(=O)OCc2c1cc1n(c2=S)Cc2c-1nc1cc(F)c(C)c3c1c2[C@H](NC(C)=O)CC3` [Example 4] was run?
Its GI50 is 1.55 nM.

With `CC[C@@]1(O)C(=O)OCc2c1cc1n(c2=S)Cc2c-1nc1cc(F)c(C)c3c1c2[C@@H](NC(=O)C(O)c1ccccc1)CC3` (stereo partly shown) [Example 5] as the molecule, how does the GI50 read?
The GI50 was 1.79 nM.

Which GI50 does the source give for `CC[C@@]1(O)C(=O)OCc2c1cc1n(c2=S)Cc2c-1nc1cc(F)c(C)c3c1c2[C@H](NC(=O)C(O)c1ccccc1)CC3` (stereo partly shown) [Example 6] here?
The GI50 was 5.31 nM.

How did the GI50 turn out when `CC[C@@]1(O)C(=O)OCc2c1cc1n(c2=S)Cc2c-1nc1cc(F)c(C)c3c1c2[C@@H](NC(=O)C(O)Cc1ccccc1)CC3` (stereo partly shown) [Example 7] was run?
The GI50 was 5.76 nM.

With `CC[C@@]1(O)C(=O)OCc2c1cc1n(c2=S)Cc2c-1nc1cc(F)c(C)c3c1c2[C@H](NC(=O)C(O)Cc1ccccc1)CC3` (stereo partly shown) [Example 8] as the molecule, how does the GI50 read?
Its GI50 is 4.95 nM.

With `CC[C@@]1(O)C(=O)OCc2c1cc1n(c2=S)Cc2c-1nc1cc(F)c(C)c3c1c2[C@@H](NC(=O)C(C)(C)O)CC3` [Example 9] as the molecule, how does the GI50 read?
The GI50 was 12.1 nM.

For `CC[C@@]1(O)C(=O)OCc2c1cc1n(c2=S)Cc2c-1nc1cc(F)c(C)c3c1c2[C@H](NC(=O)C(C)(C)O)CC3` [Example 10], which GI50 is on record?
The GI50 was 3.54 nM.

With `CC[C@@]1(O)C(=O)OCc2c1cc1n(c2=S)Cc2c-1nc1cc(F)c(C)c3c1c2[C@@H](NC(=O)CN)CC3` [Example 13] as the molecule, how does the GI50 read?
Its GI50 is 7.54 nM.

With `CC[C@@]1(O)C(=O)OCc2c1cc1n(c2=S)Cc2c-1nc1cc(F)c(C)c3c1c2[C@H](NC(=O)CN)CC3` [Example 14] as the molecule, how does the GI50 read?
Its GI50 is 6.14 nM.

`CC[C@@]1(O)C(=O)OCc2c1cc1n(c2=S)Cc2c-1nc1cc(F)c(C)c3c1c2[C@@H](NC(=O)C1(O)CC1)CC3` [Example 17] was tested. Which GI50 did it give?
Its GI50 is 1.83 nM.

How did the GI50 turn out when `CC[C@@]1(O)C(=O)OCc2c1cc1n(c2=S)Cc2c-1nc1cc(F)c(C)c3c1c2[C@H](NC(=O)C1(O)CC1)CC3` [Example 18] was run?
The GI50 was 3.89 nM.

With `CC[C@@]1(O)C(=O)OCc2c1cc1n(c2=S)Cc2c-1nc1cc(F)c(C)c3c1c2[C@@H](NC(=O)C(O)CC1CC1)CC3` (stereo partly shown) [Example 19] as the molecule, how does the GI50 read?
Its GI50 is 2.9 nM.

How did the GI50 turn out when `CC[C@@]1(O)C(=O)OCc2c1cc1n(c2=S)Cc2c-1nc1cc(F)c(C)c3c1c2[C@H](NC(=O)C(O)CC1CC1)CC3` (stereo partly shown) [Example 20] was run?
The GI50 was 4.79 nM.

How did the GI50 turn out when `CC[C@@]1(O)C(=O)OCc2c1cc1n(c2=S)Cc2c-1nc1cc(F)c(C)c3c1c2[C@H](NC(=O)C(O)C1CC1)CC3` (stereo partly shown) [Example 21] was run?
The GI50 was 34.7 nM.
